From patent publication US7807439B2, “Staphylococcus aureus-specific detection media and identifying and/or counting method using same” (Biomerieux S.A., priority 2001, dated 2010)

System: S. intermedius 8407075
Assay: Experiment 7: effect of maltose on α-glucosidase activity, weak inocula
Assay type: cell-based, Staphylococcus intermedius
Parameters: key: 0 corresponds to a lack of activity; 0.1 corresponds to the presence of a trace of coloration; 0.5 corresponds to the presence of a very pale coloration; 1 corresponds to the presence of a clear coloration of weak intensity; 1.5 corresponds to the presence of a coloration which is intermediate between colorations 1 and 2; 2 corresponds to the presence of a true coloration of medium intensity; 2.5 corresponds to the presence of a coloration which is intermediate between colorations 2 and 3; 3 corresponds to the presence of an intense coloration; 3.5 corresponds to the presence of a coloration which is intermediate between colorations 3 and 4; 4 corresponds to the presence of a very intense coloration
Conditions: strain 6
Experimental: The maltose is solubilized in water at a concentration of, for example, 100 g/l, and then a sufficient volume to obtain the final concentrations above is added to the three molten media. The Staphylococcal strains derived from the bioMérieux internal collection were seeded onto each one of the chromogenic media on their own (closely spaced perpendicular streaks over the entire surface of the dish) using a suspension at 0.5 MacFarland diluted to 1/30000. The dishes were incubated at 37° C. for 48 hours. The colonies formed were examined visually after 18, 24 and 48 hours of incubation and the intensity of coloration of the colonies was marked. The coloration was noted and the intensity of these colorations was marked. The reading scale is the same as that used above for tables 2 and 4.

OC[C@H]1O[C@H](O[C@H]2[C@H](O)[C@@H](O)C(O)O[C@@H]2CO)[C@H](O)[C@@H](O)[C@@H]1O (mixture of isomers) [Maltose, maltose]
Intensity of coloration of the colonies (18 h, Maltose 100 mg/l): 0.3
Intensity of coloration of the colonies (18 h, Maltose 300 mg/l): 0.3
Intensity of coloration of the colonies (18 h, Maltose 400 mg/l): 0.3
Intensity of coloration of the colonies (24 h, Maltose 100 mg/l): 0.6
Intensity of coloration of the colonies (24 h, Maltose 300 mg/l): 0.8
Intensity of coloration of the colonies (24 h, Maltose 400 mg/l): 1
Intensity of coloration of the colonies (>40 h, Maltose 100 mg/l): 0.8
Intensity of coloration of the colonies (>40 h, Maltose 300 mg/l): 1
Intensity of coloration of the colonies (>40 h, Maltose 400 mg/l): 1.3
